Test results published in the supplement of paper PMC10307832.

Legend:
Experiment in all cases: relative viability (nuclei count vs DMSO), 5 days (fraction); higher = more cells survive
NCI-H460 = tested on: NCI-H460
How it was run: (§1)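 Dosing by pin tool came one day after lung cancer cell lines were seeded in 1536-well plates, using either one drug or a fixed anchor-drug dose plus five library-drug doses (not always all listed) in √10 steps. After 5 days, nuclei were counted on 4× images. Relative viability is treated-well nuclei count divided by vehicle-well nuclei count, and values are medians of duplicate plates.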

NCI-H2228 = tested on: NCI-H2228
How it was run: as §1

NCI-H1792 = tested on: NCI-H1792
How it was run: as §1

COR-L 105 = tested on: COR-L 105
How it was run: as §1

NCI-H727 = tested on: NCI-H727
How it was run: as §1

LCLC-103H = tested on: LCLC-103H
How it was run: as §1

HCC-366 = tested on: HCC-366
How it was run: as §1

HOP-62 = tested on: HOP-62
How it was run: as §1

NCI-H1755 = tested on: NCI-H1755
How it was run: as §1

CAL-12T = tested on: CAL-12T
How it was run: as §1

NCI-H2009 = tested on: NCI-H2009
How it was run: as §1

Compound: Nc1ccn([C@@H]2O[C@H](CO)[C@@H](O)[C@@H]2O)c(=O)n1 [Cytarabine] + Cc1nc(NC(=O)N2CCC[C@H]2C(N)=O)sc1-c1ccnc(C(C)(C)C(F)(F)F)c1 [Alpelisib] (partner 2 µM)
- relative viability (NCI-H460; first compound 0.05 µM): 0.121
- relative viability (NCI-H460; first compound 0.1581 µM): 0.0355
- relative viability (NCI-H460; first compound 0.5 µM): 0.0251
- relative viability (NCI-H2228; first compound 0.005 µM): 0.403
- relative viability (NCI-H2228; first compound 0.01581 µM): 0.201
- relative viability (NCI-H2228; first compound 0.05 µM): 0.251
- relative viability (NCI-H2228; first compound 0.1581 µM): 0.207
- relative viability (NCI-H2228; first compound 0.5 µM): 0.164
- relative viability (NCI-H1792; first compound 0.005 µM): 0.553
- relative viability (NCI-H1792; first compound 0.01581 µM): 0.644
- relative viability (NCI-H1792; first compound 0.05 µM): 0.659
- relative viability (NCI-H1792; first compound 0.1581 µM): 0.387
- relative viability (NCI-H1792; first compound 0.5 µM): 0.343
- relative viability (COR-L 105; first compound 0.005 µM): 0.86
- relative viability (COR-L 105; first compound 0.01581 µM): 1.07
- relative viability (COR-L 105; first compound 0.05 µM): 0.675
- relative viability (COR-L 105; first compound 0.1581 µM): 0.444
- relative viability (COR-L 105; first compound 0.5 µM): 0.355
- relative viability (NCI-H727; first compound 0.005 µM): 0.461
- relative viability (NCI-H727; first compound 0.01581 µM): 0.505
- relative viability (NCI-H727; first compound 0.05 µM): 0.388
- relative viability (NCI-H727; first compound 0.1581 µM): 0.258
- relative viability (NCI-H727; first compound 0.5 µM): 0.159
- relative viability (LCLC-103H; first compound 0.005 µM): 0.988
- relative viability (LCLC-103H; first compound 0.01581 µM): 0.906
- relative viability (LCLC-103H; first compound 0.05 µM): 1.02
- relative viability (LCLC-103H; first compound 0.1581 µM): 0.967
- relative viability (LCLC-103H; first compound 0.5 µM): 0.809
- relative viability (HCC-366; first compound 0.005 µM): 0.281
- relative viability (HCC-366; first compound 0.01581 µM): 0.228
- relative viability (HCC-366; first compound 0.05 µM): 0.104
- relative viability (HCC-366; first compound 0.1581 µM): 0.047
- relative viability (HCC-366; first compound 0.5 µM): 0.019
- relative viability (HOP-62; first compound 0.005 µM): 0.793
- relative viability (HOP-62; first compound 0.01581 µM): 0.394
- relative viability (HOP-62; first compound 0.05 µM): 0.348
- relative viability (HOP-62; first compound 0.1581 µM): 0.0724
- relative viability (HOP-62; first compound 0.5 µM): 0.102
- relative viability (NCI-H1755; first compound 0.005 µM): 0.925
- relative viability (NCI-H1755; first compound 0.01581 µM): 0.878
- relative viability (NCI-H1755; first compound 0.05 µM): 0.75
- relative viability (NCI-H1755; first compound 0.1581 µM): 0.244
- relative viability (NCI-H1755; first compound 0.5 µM): 0.273
- relative viability (CAL-12T; first compound 0.005 µM): 1.25
- relative viability (CAL-12T; first compound 0.01581 µM): 1.44
- relative viability (CAL-12T; first compound 0.05 µM): 1.1
- relative viability (CAL-12T; first compound 0.1581 µM): 0.514
- relative viability (CAL-12T; first compound 0.5 µM): 0.201
- relative viability (NCI-H2009; first compound 0.005 µM): 1.14
- relative viability (NCI-H2009; first compound 0.01581 µM): 1.13
- relative viability (NCI-H2009; first compound 0.05 µM): 1.26
- relative viability (NCI-H2009; first compound 0.1581 µM): 0.937
- relative viability (NCI-H2009; first compound 0.5 µM): 0.473
